Results on 1 compound are retold here after patent publication US8779235B2, “Engineering single-gene-controlled staygreen potential into plants” (Pioneer Hi-Bred International, Inc., priority 2003, dated 2014).

What all share (format): in vivo, maize
In test [1] the test system is acs6/acs6 plants. The experiment in a line: Western analysis for Rubisco in leaves. As for the experimental part: (§1) FIG. 20 Panel A illustrates chlorophyll data, Panel B soluble protein, and Panel C Rubisco expression. The level of chlorophyll a+b (Panel A) and soluble protein (Panel B) was measured in the third oldest leaf (Leaf 3), sixth oldest leaf (Leaf 6), and ninth oldest leaf (Leaf 9) of adult wild-type (i.e., ACS6/ACS6), acs21acs2, and acs61acs6 plants following dark treatment for 7 days. Plants were watered daily. Additional acs61acs6 plants were watered daily with 100 μM ACC during the treatment. acs61acs6 leaves watered with 100 μM ACC but kept unsheathed are also shown. The average and standard deviation of leaves from three individual plants is shown. (Panel C) Western analysis of the same leaves was performed using rice anti-Rubisco antiserum. Soluble protein from leaf samples of equal fresh weight was used.
B73 leaves were collected at the indicated times and ground in liquid nitrogen to a fine powder. One ml of extraction buffer [20 mM HEPES (pH 7.6), 100 mM KCl, 10% glycerol, 1 mM PMSF] was added to approximately 0.1 g frozen powder and mixed thoroughly. Cell debris was pelleted by centrifugation at 10,000 rpm for 10 min and the protein concentration determined as described (Bradford, 1976). […] The blots were washed twice with TPBS and the signal detected typically between 1 to 15 min using chemiluminescence (Amersham Corp). […]

The subject of test [2] is acs6/acs6 plants. Description: chlorophyll a+b level in leaves after 7 day dark treatment. As for the experimental part:
as §1
Leaves were frozen in liquid nitrogen and ground to a fine powder. Samples of approximately 0.1 g were removed to a 1.5 ml tube and weighed. Chlorophyll was extracted 5× with 1 ml (or 0.8 ml) of 80% acetone. Individual extractions were combined and the final volume adjusted to 10 ml (or 15 ml) with additional 80% acetone. Chlorophyll content (a+b) was determined spectrophotometrically according to the methods of Wellburn (1994). […]

Test [3] relates to acs6/acs6 plants. The experiment in a line: dark-induced senescence of sheathed leaves, complementation of the acs6 mutant by exogenous ACC. As for the experimental part:
To examine if exogenous ACC could complement the acs6 mutant and reverse its staygreen phenotype, the third oldest, sixth, and ninth leaf from ACS6/ACS6, acs2/acs2, and acs6/acs6 plants were subject to dark-induced senescence at 20 DAP by covering them with sheaths for 7 days. All leaves were fully green at the onset of the experiment and remained attached to the plant. acs6/acs6 plants were watered daily with water or 100 μM ACC for 7 days. Following 7 days, dark-induced senescence had initiated in wild-type (i.e., ASC6/ASC6) leaves although it had not progressed to the extent observed following a 2 week dark treatment. […] Dark-induced senescence was also observed in leaf 3 of the acs2 homozygous mutant although it was less pronounced than that observed in the corresponding wild-type leaves.

The test system of test [4] is acs6/acs6 plants. The experiment in a line: total soluble leaf protein after 7 day dark treatment. The settings on record: watered with 100 μM ACC. As for the experimental part:
as §1
For total protein isolation, leaves of B73 or mutant plants were collected at the indicated times, quick-frozen in liquid nitrogen and ground to a fine powder. […] Samples were centrifuged 10 min at 10,000 rpm, the supernatant removed to a new tube and the concentration determined spectrophotometrically according to the methods of Bradford (1976). See, Bradford M M (1976) A rapid and sensitive method for the quantitation of microgram quantities of protein utilizing the principle of protein-dye binding. […]

The structures appear in SMILES notation.

For the compound `NC1(C(=O)O)CC1` [ACC, 1-aminocyclopropane-1-carboxylic acid], the “loss of Rubisco” value is reported as “No loss of Rubisco was observed” with acs6/acs6 plants [1] (ACC-treated acs6 leaves that remained in the light) and “lost an amount of Rubisco similar to that of dark-treated B73 leaves” in the test with acs6/acs6 plants [1] (dark-treated acs6 leaves watered with 100 μM ACC). The “retention of chlorophyll a+b compared with wild-type leaves” value with acs6/acs6 plants [2] (acs6 leaves, 7 day dark treatment, watered with 100 μM ACC) is “did not do so when watered with 100 μM ACC”. Also, in the test with acs6/acs6 plants [2] (unsheathed leaves of acs6 mutants watered with ACC), the loss of chlorophyll entry was “chlorophyll was not lost”. For the same compound, in the test on acs6/acs6 plants [3] (acs6 leaves not sheathed, plants watered daily with 100 μM ACC for 7 days), the “senescence of leaves that were not sheathed (visual)” value was “did not affect acs6 leaves that were not sheathed”. In addition, in the test with acs6/acs6 plants [3] (acs6 leaves sheathed 7 days at 20 DAP, plants watered daily with 100 μM ACC), the “dark-induced senescence (visual)” value is listed as “dark-induced senescence similar to that of wild-type leaves was observed”. In the test on acs6/acs6 plants [4], the “retention of total soluble leaf protein compared with wild-type leaves” value is on record as “did not do so when watered with 100 μM ACC”.
